Molecules are shown by their SMILES. Where “and” joins values, the source holds several entries; their conditions need not be identical. Equal entries are not always repeated. Where two headings read alike, the source gives them in different places.

The target in data set [1] is T1, 3CL protease of 2019 Novel Coronavirus (2019-nCoV 3CLpro) (Severe acute respiratory syndrome coronavirus 2, UniProt P0DTD1).
T1 construct: the 3CL protease of 2019 Novel Coronavirus (2019-nCoV 3CL^pro)
Kind of data set: FRET inhibitory activity against 3CL protease of 2019 Novel Coronavirus. It counts as biochemical. To be noted: for inhibition at 1 µM: read-out: Inhibition rate (1 μM), 3CL protease of 2019 Novel Coronavirus.

The test system of data set [2] is 2019-nCov. Kind of data set: Inhibitory activity against the replication of 2019-nCov (cytopathic effect, MTS). It counts as cell-based. Conditions: for EC50: Severe acute respiratory syndrome coronavirus 2, gradient concentrations, CQ as positive control, read-out: EC50 against 2019-nCoV virus replication; for anti-virus activity against 2019-nCoV (in words): viral level, compared with positive control CQ. Background: Cytopathic effects are the visible damage that an infection or toxin causes in cultured cells.

Data set [3] can be described thus: Half-toxic concentration (CC50) with CCK8 kit. It counts as cell-based. To be noted: African green monkey, Vero E6 cells, in duplicate. As for the experimental part:
In this example, the half-toxic concentrations (CC50) of some compounds of the present invention to Vero E6 cells were determined with CCK8 kit in duplicate.
A general note: Tetrazolium dyes change colour on reduction, which living cells bring about.

In data set [4] the test system is 2019-nCov. Conditions: positive control, stated as existing value; read-out: EC50 of existing positive compound CQ against 2019-nCoV virus replication; cited from earlier work.
[5] abbreviates: read-out: IC50 against 2019-nCoV 3CL protease.
Where [6] appears, read: FRET, tables 1A/1B, read-out: IC50 (nM) of SARS-CoV-2 3 CL protease.

Consider `O=C[C@H](C[C@@H]1CCNC1=O)NC(=O)[C@H](Cc1cccc(F)c1)NC(=O)c1cc2ccccc2[nH]1` [Compound 81], for which the IC50 in data set [1] (setting [5]) is less than 100 nM. Besides, in the data set on 2019-nCov [2], the EC50 worked out at 330 ± 90 nM and the “anti-virus activity against 2019-nCoV (in words)” value (“anti-virus activity” below) is “better than that of the positive control CQ”. For the same compound, the “anti-virus activity” value with 2019-nCov [2] (listed as 2259) was “excellent anti-virus activity”. The compound also registered a CC50 in data set [3] greater than 100000 nM.

In the case of `COc1ccc2[nH]c(C(=O)N[C@@H](CC3CCCCC3)C(=O)N[C@H](C=O)C[C@@H]3CCNC3=O)cc2c1` [Compound 50], the inhibition at 1 µM in data set [1] was 89.1%.

On to `O=C[C@H](C[C@@H]1CCNC1=O)NC(=O)[C@H](Cc1cccc(F)c1)NC(=O)c1cc2c(F)ccc(F)c2[nH]1` [Compound 83, 4,7-Difluoron-{(S)-1-carbonyl-1-{{(S)-1-carbonyl-3-[(S)-2-carbonylpyrrolidin-3-yl]propan-2-yl}amino}-3-3fluorophenylpropan-2-yl}-1H-indole-2-carboxamide], for which the 50% inhibitory concentration (IC50) in data set [1] (setting [6]) is 113 ± 9 nM. Further, the inhibition at 1 µM in data set [1] (compound at 1 μM) was 97.8%.

For the compound `CC(C)[C@H](NC(=O)c1cc2cc(Cl)ccc2o1)C(=O)N[C@@H](CC1CCCCC1)C(=O)N[C@H](C=O)C[C@@H]1CCNC1=O` [Compound 20, 5-Chloro-N-{(S)-3-methyl-1-carbonyl-1-{{(S)-1-carbonyl-1-{{(S)-1-carbonyl-3-[(S)-2-carbonylpyrrolidin-3-yl]propan-2-yl}amino}-3-cyclohexylpropan-2-yl}amino}butan-2-yl}benzofuran-2-carboxamide], the IC50 in data set [1] (setting [6]) is 150 ± 9.55 nM. The inhibition at 1 µM in data set [1] (compound at 1 μM) was found to be 101%.

For `CC(C)[C@H](NC(=O)c1cc2ccccc2[nH]1)C(=O)N[C@@H](CC1CCCCC1)C(=O)N[C@H](C=O)C[C@@H]1CCNC1=O` [Compound 5, N-{(S)-3-methyl-1-carbonyl-1-{{(S)-1-carbonyl-1-{{(S)-1-carbonyl-3-[(S)-2-carbonylpyrrolidin-3-yl]propan-2-yl}amino}-3-cyclohexylpropan-2-yl}amino}butan-2-yl}indole-2-carboxamide], the IC50 is 33.6 ± 3.45 nM in data set [1] (setting [6]) and less than 100 nM in data set [1] (setting [5]). The inhibition at 1 µM in data set [1] (compound at 1 μM) is 95.7%.

On to `O=C[C@H](C[C@@H]1CCNC1=O)NC(=O)[C@H](CC1CCCCC1)NC(=O)c1cnc2ccccc2n1` [Compound 59], for which the inhibition at 1 µM in data set [1] came to 86.7%.

With `CC(C)[C@H](NC(=O)c1cc2ccccc2o1)C(=O)N[C@@H](Cc1ccccc1)C(=O)N[C@H](C=O)C[C@@H]1CCNC1=O` [Compound 10, N-{(S)-3-methyl-1-carbonyl-1-{{(S)-1-carbonyl-1-{{(S)-1-carbonyl-3-[(S)-2-carbonylpyrrolidin-3-yl]propan-2-yl}amino}-3-phenylpropan-2-yl}amino}butan-2-yl}benzofuran-2-carboxamide], the IC50 in data set [1] (setting [6]) was 67.5 ± 13.9 nM; in data set [1] (setting [5]), less than 100 nM. Besides, the inhibition at 1 µM in data set [1] (compound at 1 μM) turned out to be 88.2%.

Turning to `Cn1c(C(=O)N[C@@H](CC2CCCCC2)C(=O)N[C@H](C=O)C[C@@H]2CCNC2=O)cc2ccccc21` [Compound 49], in data set [1], the inhibition at 1 µM was 91.2%.

Regarding `CC(C)[C@H](NC(=O)c1cc2ccccc2s1)C(=O)N[C@@H](CC1CCCCC1)C(=O)N[C@H](C=O)C[C@@H]1CCNC1=O` [Compound 24], the IC50 in data set [1] (setting [6]) came out at 132 ± 14.7 nM. In addition, the inhibition at 1 µM in data set [1] (compound at 1 μM) was found to be 93.3%.

As for `O=C[C@H](C[C@@H]1CCNC1=O)NC(=O)[C@H](CC1CCCCC1)NC(=O)c1nc2ccccc2[nH]1` [Compound 57], the inhibition at 1 µM in data set [1] amounted to 92.3%.

For `O=C[C@H](C[C@@H]1CCNC1=O)NC(=O)[C@H](CC1CCCCC1)NC(=O)c1cc2ccccc2[nH]1` [Compound 48], in the data set on 2019-nCov [2], the concentration giving a half-maximal response (EC50) was 290 nM and the “anti-virus activity” value was “better than that of the positive control CQ”. The “anti-virus activity” value in the data set on 2019-nCov [2] (listed as 2234) is listed as “excellent anti-virus activity”. The CC50 in data set [3] is greater than 100000 nM.

Turning to `CC(C)[C@H](NC(=O)c1cc2ccccc2o1)C(=O)N[C@@H](CC1CCCCC1)C(=O)N[C@H](C=O)C[C@@H]1CCNC1=O` [Compound 17, N-{(S)-3-methyl-1-carbonyl-1-{{(S)-1-carbonyl-1-{{(S)-1-carbonyl-3-[(S)-2-carbonylpyrrolidin-3-yl]propan-2-yl}amino}-3-cyclohexylpropan-2-yl}amino}butan-2-yl}benzofuran-2-carboxamide], the values for the IC50 in data set [1] (setting [6]) and in data set [1] (setting [5]) were 61 ± 12.5 nM and less than 100 nM, respectively. Further, the inhibition at 1 µM in data set [1] (compound at 1 μM) stood at 106%.

In the case of `O=C[C@H](C[C@@H]1CCNC1=O)NC(=O)[C@H](Cc1ccccc1)NC(=O)c1cc2cc(F)ccc2[nH]1` [Compound 45], the inhibition at 1 µM in data set [1] came out at 85.2%.

Take `O=C[C@H](C[C@@H]1CCNC1=O)NC(=O)[C@H](Cc1ccccc1)NC(=O)c1cc2ccc(F)cc2[nH]1` [Compound 46]: the inhibition at 1 µM in data set [1] is 89.3%.

`O=C[C@H](C[C@@H]1CCNC1=O)NC(=O)[C@H](Cc1ccc(F)cc1)NC(=O)c1cc2ccccc2[nH]1` [Compound 82]: the IC50 in data set [1] (setting [6]) was determined as 103 ± 13 nM. Also, the inhibition at 1 µM in data set [1] (compound at 1 μM) came to 101%.

Take `CC(C)[C@H](NC(=O)c1ccc2ccccc2n1)C(=O)N[C@@H](CC1CCCCC1)C(=O)N[C@H](C=O)C[C@@H]1CCNC1=O` [Compound 16, N-{(S)-3-methyl-1-carbonyl-1-{{(S)-1-carbonyl-1-{{(S)-1-carbonyl-3-[(S)-2-carbonylpyrrolidin-3-yl]propan-2-yl}amino}-3-cyclohexylpropan-2-yl}amino}butan-2-yl}quinoline-2-carboxamide]: the IC50 is 74 nM in data set [1] (setting [6]); < 100 nM and 73.5 nM in data set [1] (setting [5]). Moreover, the inhibition at 1 µM in data set [1] (compound at 1 μM) turned out to be 89.1%. Further, the “anti-virus activity” value in the data set on 2019-nCov [2] is “excellent anti-virus activity”. In data set [3], this compound yielded a CC50 greater than 100000 nM.

Regarding `CC(C)[C@H](NC(=O)c1cc2ccccc2[nH]1)C(=O)N[C@@H](Cc1ccccc1)C(=O)N[C@H](C=O)C[C@@H]1CCNC1=O` [Compound 9, N-{(S)-3-methyl-1-carbonyl-1-{{(S)-1-carbonyl-1-{{(S)-1-carbonyl-3-[(S)-2-carbonylpyrrolidin-3-yl]propan-2-yl}amino}-3-phenylpropan-2-yl}amino}butan-2-yl}indole-2-carboxamide], the concentration for half-maximal inhibition (IC50) in data set [1] (setting [6]) was 68.1 ± 12.5 nM; in data set [1] (setting [5]), less than 100 nM. Besides, the inhibition at 1 µM in data set [1] (compound at 1 μM) is 95.8%.

As to `O=C[C@H](C[C@@H]1CCNC1=O)NC(=O)[C@H](CC1CCCCC1)NC(=O)c1cc2c(Cl)cc(Cl)cc2[nH]1` [Compound 47], the inhibition at 1 µM in data set [1] is 90.4%.

With `Cc1cc2ccccc2nc1C(=O)N[C@H](C(=O)N[C@@H](CC1CCCCC1)C(=O)N[C@H](C=O)C[C@@H]1CCNC1=O)C(C)C` [Compound 19, 3-Methyl-N-{(S)-3-methyl-1-carbonyl-1-{{(S)-1-carbonyl-1-{{(S)-1-carbonyl-3-[(S)-2-carbonylpyrrolidin-3-yl]propan-2-yl}amino}-3-cyclohexylpropan-2-yl}amino}butan-2-yl}quinoline-2-carboxamide], the 50% inhibitory concentration (IC50) in data set [1] (setting [6]) is 62.7 ± 8.97 nM; in data set [1] (setting [5]), less than 100 nM. Besides, the inhibition at 1 µM in data set [1] (compound at 1 μM) amounted to 98.3%.

As to `CC(C)[C@H](NC(=O)c1ccc2ccccc2n1)C(=O)N[C@@H](Cc1ccccc1)C(=O)N[C@H](C=O)C[C@@H]1CCNC1=O` [Compound 11, N-{(S)-3-methyl-1-carbonyl-1-{{(S)-1-carbonyl-1-{{(S)-1-carbonyl-3-[(S)-2-carbonylpyrrolidin-3-yl]propan-2-yl}amino}-3-phenylpropan-2-yl}amino}butan-2-yl}quinoline-2-carboxamide], the IC50 in data set [1] (setting [6]) was 179 ± 29.4 nM. In data set [1] (compound at 1 μM), the inhibition at 1 µM was 89.7%.

As to `Cc1cc(C(=O)N[C@H](C(=O)N[C@@H](CC2CCCCC2)C(=O)N[C@H](C=O)C[C@@H]2CCNC2=O)C(C)C)no1` [Compound 6, 5-Methyl-N-{(S)-3-methyl-1-carbonyl-1-{{(S)-1-carbonyl-1-{{(S)-1-carbonyl-3-[(S)-2-carbonylpyrrolidin-3-yl]propan-2-yl}amino}-3-cyclohexylpropan-2-yl}amino}butan-2-yl}isoxazole-3-carboxamide], the IC50 in data set [1] (setting [6]) was 48.5 ± 3.17 nM; in data set [1] (setting [5]), less than 100 nM. Besides, in data set [1] (compound at 1 μM), the inhibition at 1 µM stood at 95.8%.

On to `CC(C)[C@H](NC(=O)c1cc2ccccc2[nH]1)C(=O)N[C@@H](CC1CCC(F)C(F)C1)C(=O)N[C@H](C=O)C[C@@H]1CCNC1=O` (stereo partly shown) [Compound 35], for which, in data set [1], the inhibition at 1 µM was determined as 94.3%.

For the compound `O=C[C@H](C[C@@H]1CCNC1=O)NC(=O)[C@H](CC1CCCCC1)NC(=O)c1cc2ccccc2s1` [Compound 56], in data set [1], the inhibition at 1 µM worked out at 81.3%.

Consider `O=C[C@H](C[C@@H]1CCNC1=O)NC(=O)[C@H](CC1CCCCC1)NC(=O)c1cc2c(F)cccc2[nH]1` [Compound 51], for which the inhibition at 1 µM in data set [1] amounted to 84.6%.

`O=C[C@H](C[C@@H]1CCNC1=O)NC(=O)[C@H](Cc1ccc(F)c(F)c1)NC(=O)c1cc2ccccc2[nH]1` [Compound 12]: the half-maximal inhibitory concentration (IC50) is 87 ± 8 nM in data set [1] (setting [6]) and less than 100 nM in data set [1] (setting [5]). Also, the inhibition at 1 µM in data set [1] (compound at 1 μM) came out at 103%.

On to `CCN(CC)CCCC(C)Nc1ccnc2cc(Cl)ccc12` (stereo not shown) [CQ], for which the EC50 with 2019-nCov [4] is 1130 nM.

For `CC(C)[C@H](NC(=O)c1cc2cccc(Br)c2o1)C(=O)N[C@@H](CC1CCCCC1)C(=O)N[C@H](C=O)C[C@@H]1CCNC1=O` [Compound 18, 7-Bromo-N-{(S)-3-methyl-1-carbonyl-1-{{(S)-1-carbonyl-1-{{(S)-1-carbonyl-3-[(S)-2-carbonylpyrrolidin-3-yl]propan-2-yl}amino}-3-cyclohexylpropan-2-yl}amino}butan-2-yl}benzofuran-2-carboxamide], in data set [1] (setting [6]), the IC50 is 238 ± 18.7 nM. Moreover, in data set [1] (compound at 1 μM), the inhibition at 1 µM is 97.8%.

In general, IC50 refers to the concentration needed to halve the response being measured. The term EC50 denotes the concentration at which the effect is half-maximal. The CC50 is the concentration that lowers cell viability or growth by half. Low values mean greater toxicity to the cells, high ones lower toxicity to the cells. The inhibition is the relative decrease from the control value, in per cent.

Source of the values: patent US20230138310A1 (priority 2020, published 2023).
